Results from the NIST ThermoML archive (doi:10.1016/j.jct.2007.05.011).

Test: xn = mol fraction of the nth substance listed
Conditions: 101 kPa, Liquid; for mass density: Vibrating tube method

NCCO.O=CO [2-hydroxyethylammonium formate] + CCO
Conditions | mass density [kg/m3] | speed of sound [m/s]
305.65 K, x2 = 0 | – | 1690.8
305.65 K, x2 = 0.058 | – | 1704.7
305.65 K, x2 = 0.098 | – | 1685.5
305.65 K, x2 = 0.193 | – | 1642.7
305.65 K, x2 = 0.296 | – | 1598.7
305.65 K, x2 = 0.399 | – | 1545.2
305.65 K, x2 = 0.5 | – | 1485.4
305.65 K, x2 = 0.598 | – | 1421.8
305.65 K, x2 = 0.701 | – | 1353.1
305.65 K, x2 = 0.799 | – | 1281.3
305.65 K, x2 = 0.9 | – | 1206.1
305.65 K, x2 = 0.95 | – | 1165.7
308.15 K, x2 = 0 | 1169.39 | 1684.8
308.15 K, x2 = 0.058 | 1159.76 | 1699.5
308.15 K, x2 = 0.098 | 1147.72 | 1680.2
308.15 K, x2 = 0.193 | 1122.18 | 1637.3
308.15 K, x2 = 0.296 | 1096.28 | 1593
308.15 K, x2 = 0.399 | 1065.47 | 1539.2
308.15 K, x2 = 0.5 | 1030.18 | 1479.2
308.15 K, x2 = 0.598 | 991.781 | 1415.2
308.15 K, x2 = 0.701 | 948.127 | 1346.1
308.15 K, x2 = 0.799 | 898.707 | 1274
308.15 K, x2 = 0.9 | 842.788 | 1198.3
308.15 K, x2 = 0.95 | 811.783 | 1157.6
310.65 K, x2 = 0 | 1167.62 | 1678.7
310.65 K, x2 = 0.058 | 1158.11 | 1694.4
310.65 K, x2 = 0.098 | 1146.06 | 1674.9
310.65 K, x2 = 0.193 | 1120.49 | 1631.8
310.65 K, x2 = 0.296 | 1094.56 | 1587.4
310.65 K, x2 = 0.399 | 1063.71 | 1533.3
310.65 K, x2 = 0.5 | 1028.38 | 1473
310.65 K, x2 = 0.598 | 989.927 | 1408.7
310.65 K, x2 = 0.701 | 946.21 | 1339.3
310.65 K, x2 = 0.799 | 896.716 | 1266.7
310.65 K, x2 = 0.9 | 840.709 | 1190.5
310.65 K, x2 = 0.95 | 809.653 | 1149.5
313.15 K, x2 = 0 | 1165.84 | 1672.7
313.15 K, x2 = 0.058 | 1156.45 | 1689.2
313.15 K, x2 = 0.098 | 1144.4 | 1669.8
313.15 K, x2 = 0.193 | 1118.8 | 1626.3
313.15 K, x2 = 0.296 | 1092.84 | 1581.7
313.15 K, x2 = 0.399 | 1061.95 | 1527.4
313.15 K, x2 = 0.5 | 1026.57 | 1466.8
313.15 K, x2 = 0.598 | 988.066 | 1402.2
313.15 K, x2 = 0.701 | 944.29 | 1332.3
313.15 K, x2 = 0.799 | 894.718 | 1259.3
313.15 K, x2 = 0.9 | 838.621 | 1182.7
313.15 K, x2 = 0.95 | 807.511 | 1141.4
315.65 K, x2 = 0 | 1164.06 | 1666.7
315.65 K, x2 = 0.058 | 1154.81 | 1684.1
315.65 K, x2 = 0.098 | 1142.73 | 1664.5
315.65 K, x2 = 0.193 | 1117.11 | 1620.9
315.65 K, x2 = 0.296 | 1091.12 | 1576
315.65 K, x2 = 0.399 | 1060.19 | 1521.5
315.65 K, x2 = 0.5 | 1024.77 | 1460.5
315.65 K, x2 = 0.598 | 986.208 | 1395.6
315.65 K, x2 = 0.701 | 942.365 | 1325.5
315.65 K, x2 = 0.799 | 892.716 | 1252
315.65 K, x2 = 0.9 | 836.524 | 1174.9
315.65 K, x2 = 0.95 | 805.362 | 1133.4
318.15 K, x2 = 0 | 1162.29 | 1660.8
318.15 K, x2 = 0.058 | 1153.16 | 1679
318.15 K, x2 = 0.098 | 1141.07 | 1659.2
318.15 K, x2 = 0.193 | 1115.42 | 1615.5
318.15 K, x2 = 0.296 | 1089.4 | 1570.4
318.15 K, x2 = 0.399 | 1058.44 | 1515.6
318.15 K, x2 = 0.5 | 1022.96 | 1454.4
318.15 K, x2 = 0.598 | 984.346 | 1389.2
318.15 K, x2 = 0.701 | 940.437 | 1318.7
318.15 K, x2 = 0.799 | 890.71 | 1244.8
318.15 K, x2 = 0.9 | 834.423 | 1167.2
318.15 K, x2 = 0.95 | 803.205 | 1125.4
320.65 K, x2 = 0 | 1160.51 | 1654.8
320.65 K, x2 = 0.058 | 1151.51 | 1673.9
320.65 K, x2 = 0.098 | 1139.41 | 1654
320.65 K, x2 = 0.193 | 1113.73 | 1610.1
320.65 K, x2 = 0.296 | 1087.69 | 1564.8
320.65 K, x2 = 0.399 | 1056.68 | 1509.9
320.65 K, x2 = 0.5 | 1021.15 | 1448.2
320.65 K, x2 = 0.598 | 982.484 | 1382.8
320.65 K, x2 = 0.701 | 938.509 | 1311.8
320.65 K, x2 = 0.799 | 888.697 | 1237.6
320.65 K, x2 = 0.9 | 832.314 | 1159.5
320.65 K, x2 = 0.95 | 801.039 | 1117.5
323.15 K, x2 = 0 | 1158.73 | 1648.9
323.15 K, x2 = 0.058 | 1149.88 | 1668.8
323.15 K, x2 = 0.098 | 1137.78 | 1648.8
323.15 K, x2 = 0.193 | 1112.06 | 1604.7
323.15 K, x2 = 0.296 | 1085.98 | 1559.4
323.15 K, x2 = 0.399 | 1054.93 | 1504.2
323.15 K, x2 = 0.5 | 1019.35 | 1442.1
323.15 K, x2 = 0.598 | 980.632 | 1376.5
323.15 K, x2 = 0.701 | 936.584 | 1305.1
323.15 K, x2 = 0.799 | 886.69 | 1230.5
323.15 K, x2 = 0.9 | 830.212 | 1152
323.15 K, x2 = 0.95 | 798.879 | 1109.7
